Test results taken from PubChem BioAssay AID1963854 (Molecular Pharmacology Branch, DTP, NCI, 2024).

Tested on: 186277-243-T-J2-PDC complex spheroid viability
Assay: Anticancer human tumor 186277-243-T-J2-PDC patient-derived colon adenocarcinoma cell line growth inhibition [POLQ]
Conditions: for IC50: curve of first compound; for viability, T/C: stronger effect = lower value
How it was run: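 Growth inhibition in 3D: complex spheroids (tumor PDC, HUVEC, MSC) treated with POLQ inhibitor combinations; where Cmax unknown, highest tested concentration 10 microM, except SN-38 at 1 microM.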

[1] = second compound 0.0316 µM, first compound 0.0316 µM
[2] = second compound 0.0316 µM, first compound 0.1 µM
[3] = second compound 0.0316 µM, first compound 0.316 µM
[4] = second compound 0.0316 µM, first compound 1 µM
[5] = second compound 0.1 µM, first compound 0.0316 µM
[6] = second compound 0.1 µM, first compound 0.1 µM
[7] = second compound 0.1 µM, first compound 0.316 µM
[8] = second compound 0.1 µM, first compound 1 µM
[9] = second compound 0.316 µM, first compound 0.0316 µM
[10] = second compound 0.316 µM, first compound 0.1 µM
[11] = second compound 0.316 µM, first compound 0.316 µM
[12] = second compound 0.316 µM, first compound 1 µM
[13] = second compound 1 µM, first compound 0.0316 µM
[14] = second compound 1 µM, first compound 0.1 µM
[15] = second compound 1 µM, first compound 0.316 µM
[16] = second compound 1 µM, first compound 1 µM
[17] = second compound 3.16 µM, first compound 0.0316 µM
[18] = second compound 3.16 µM, first compound 0.1 µM
[19] = second compound 3.16 µM, first compound 0.316 µM
[20] = second compound 3.16 µM, first compound 1 µM
[21] = second compound 10 µM, first compound 0.0316 µM
[22] = second compound 10 µM, first compound 0.1 µM
[23] = second compound 10 µM, first compound 0.316 µM
[24] = second compound 10 µM, first compound 1 µM
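Also: spheroids exposed to compounds for seven days.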
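For viability, T/C in this document: 100% = DMSO vehicle control viability.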

`COc1cc(C2c3cc4c(cc3C(OC3OC5COC(C)OC5C(O)C3O)C3COC(=O)C23)OCO4)cc(OC)c1O` (centres undefined) + COC1C(OC(N)=O)C(O)C(Oc2ccc3c(O)c(NC(=O)c4ccc(O)c(CC=C(C)C)c4)c(=O)oc3c2C)OC1(C)C gave an IC50 (second compound 0.0316 µM) of 727 nM, an IC50 (second compound 0.1 µM) of 739 nM and an IC50 (second compound 0.316 µM) of 659 nM. It also gave an IC50 (second compound 1 µM) of 662 nM, an IC50 (second compound 3.16 µM) of 560 nM and an IC50 (second compound 10 µM) of 710 nM. It also gave a viability, T/C [1] of 112%, a viability, T/C [2] of 128% and a viability, T/C [3] of 76.6%. The viability, T/C [4] was 40.9%, the viability, T/C (second compound 0.0316 µM, first compound 3.16 µM) was 25.7% and the viability, T/C (second compound 0.0316 µM, first compound 10 µM) was 11.6%. The viability, T/C [5] was 98.8%, the viability, T/C [6] was 113% and the viability, T/C [7] was 69.9%. For the same compound, the viability, T/C [8] was 42.1%, the viability, T/C (second compound 0.1 µM, first compound 3.16 µM) was 27.3% and the viability, T/C (second compound 0.1 µM, first compound 10 µM) was 11.9%. It also gave a viability, T/C [9] of 114%, a viability, T/C [10] of 116% and a viability, T/C [11] of 67.9%. It also gave a viability, T/C [12] of 39.7%, a viability, T/C (second compound 0.316 µM, first compound 3.16 µM) of 24.6% and a viability, T/C (second compound 0.316 µM, first compound 10 µM) of 11.8%. The viability, T/C [13] was 118%, the viability, T/C [14] was 120% and the viability, T/C [15] was 65.3%. The viability, T/C [16] was 42.3%, the viability, T/C (second compound 1 µM, first compound 3.16 µM) was 25.5% and the viability, T/C (second compound 1 µM, first compound 10 µM) was 12.4%. The viability, T/C [17] was 113%, the viability, T/C [18] was 124% and the viability, T/C [19] was 65.1%. The viability, T/C [20] was 37.6%, the viability, T/C (second compound 3.16 µM, first compound 3.16 µM) was 25.3% and the viability, T/C (second compound 3.16 µM, first compound 10 µM) was 11.3%. The viability, T/C [21] was 120%, the viability, T/C [22] was 110% and the viability, T/C [23] was 69.6%. The viability, T/C [24] was 40.3%, the viability, T/C (second compound 10 µM, first compound 3.16 µM) was 26.8% and the viability, T/C (second compound 10 µM, first compound 10 µM) was 11.8%.

For `C=CCn1c(=O)c2cnc(Nc3ccc(N4CCN(C)CC4)cc3)nc2n1-c1cccc(C(C)(C)O)n1` + Cc1cccc(N(C)C(=O)C2C(O)CCN2c2nc(C)cc(C(F)(F)F)c2C#N)c1, the IC50 (second compound 0.0316 µM) was 213 nM, the IC50 (second compound 0.1 µM) was 230 nM and the IC50 (second compound 0.316 µM) was 220 nM. For the same compound, the IC50 (second compound 1 µM) was 226 nM, the IC50 (second compound 3.16 µM) was 223 nM and the IC50 (second compound 10 µM) was 224 nM. For the same compound, the viability, T/C (second compound 0.0316 µM, first compound 0.00316 µM) was 107%, the viability, T/C (second compound 0.0316 µM, first compound 0.01 µM) was 102% and the viability, T/C [1] was 88.4%. For the same compound, the viability, T/C [2] was 96.3%, the viability, T/C [3] was 25.9% and the viability, T/C [4] was 12.5%. The viability, T/C (second compound 0.1 µM, first compound 0.00316 µM) was 99.1%, the viability, T/C (second compound 0.1 µM, first compound 0.01 µM) was 112% and the viability, T/C [5] was 95.3%. For the same compound, the viability, T/C [6] was 106%, the viability, T/C [7] was 29.6% and the viability, T/C [8] was 13.7%. The viability, T/C (second compound 0.316 µM, first compound 0.00316 µM) was 88.1%, the viability, T/C (second compound 0.316 µM, first compound 0.01 µM) was 99.4% and the viability, T/C [9] was 103%. The viability, T/C [10] was 111%, the viability, T/C [11] was 26.6% and the viability, T/C [12] was 13.8%. It also gave a viability, T/C (second compound 1 µM, first compound 0.00316 µM) of 102%, a viability, T/C (second compound 1 µM, first compound 0.01 µM) of 119% and a viability, T/C [13] of 104%. The viability, T/C [14] was 110%, the viability, T/C [15] was 25.7% and the viability, T/C [16] was 12.5%. It also gave a viability, T/C (second compound 3.16 µM, first compound 0.00316 µM) of 119%, a viability, T/C (second compound 3.16 µM, first compound 0.01 µM) of 95.7% and a viability, T/C [17] of 102%. For the same compound, the viability, T/C [18] was 131%, the viability, T/C [19] was 22.8% and the viability, T/C [20] was 16.8%. It also gave a viability, T/C (second compound 10 µM, first compound 0.00316 µM) of 116%, a viability, T/C (second compound 10 µM, first compound 0.01 µM) of 102% and a viability, T/C [21] of 106%. For the same compound, the viability, T/C [22] was 106%, the viability, T/C [23] was 24.7% and the viability, T/C [24] was 12.8%.
